# Columns and labels:
# [1] = tested on: LC-1F; assay: cells; type: functional, cell-based, Homo sapiens; details: Homo sapiens, LC-1F;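 further: growth inhibition of human LC-1F cells, read out with a cell viability assay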
# Description: SANGER: Inhibition of human LC-1F cell growth in a cell viability assay.
# [2] = tested on: UACC-62; assay: cells; type: functional, cell-based; details: Homo sapiens;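 further: growth inhibition of human UACC-62 cells, read out by a cell viability assay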
# Description: SANGER: Inhibition of human UACC-62 cell growth in a cell viability assay.
# [3] = tested on: AGS; assay: cells; type: functional, cell-based; details: Homo sapiens;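 further: growth inhibition of AGS cells, determined with a cell viability assay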
# Description: SANGER: Inhibition of human AGS cell growth in a cell viability assay.
# [4] = tested on: MeWo; assay: cells; type: functional, cell-based; details: Homo sapiens;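 further: growth inhibition of MeWo cells, determined by a cell viability readout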
# Description: SANGER: Inhibition of human Mewo cell growth in a cell viability assay.
# [5] = tested on: EB2; assay: cells; type: functional, cell-based, Homo sapiens; details: Homo sapiens, EB2;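 further: growth inhibition of EB2 cells, read out with a cell viability assay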
# Description: SANGER: Inhibition of human EB2 cell growth in a cell viability assay.
# [6] = tested on: HSC-3; assay: cells; type: functional, cell-based; details: Homo sapiens
# Description: SANGER: Inhibition of human HSC-3 cell growth in a cell viability assay.
# [7] = tested on: NCI-H1882; assay: cells; type: functional, cell-based, Homo sapiens; details: Homo sapiens, NCI-H1882;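 further: growth inhibition of the cell line, determined with a viability assay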
# Description: SANGER: Inhibition of human NCI-H1882 cell growth in a cell viability assay.
# [8] = tested on: MDA-MB-175-VII; assay: cells; type: functional, cell-based; details: Homo sapiens
# [9] = tested on: RT-112; assay: cells; type: functional, cell-based; details: Homo sapiens
# Description: SANGER: Inhibition of human RT-112 cell growth in a cell viability assay.
# [10] = tested on: SW-620; assay: cells; type: functional, cell-based; details: Homo sapiens;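 further: growth inhibition of human SW-620 cells, measured by a cell viability assay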
# Description: SANGER: Inhibition of human SW620 cell growth in a cell viability assay.
# [11] = tested on: RO82-W-1; assay: cells; type: functional, cell-based; details: Homo sapiens;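 further: growth inhibition of human RO82-W-1 cells, measured with a cell viability assay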
# Description: SANGER: Inhibition of human RO82-W-1 cell growth in a cell viability assay.
# [12] = tested on: SW1417; assay: cells; type: functional, cell-based; details: Homo sapiens;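 further: growth inhibition of human SW1417 cells, read out with a cell viability assay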
# Description: SANGER: Inhibition of human SW1417 cell growth in a cell viability assay.
# [13] = tested on: SCC-3; assay: cells; type: functional, cell-based, Homo sapiens; details: Homo sapiens, SCC-3;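 further: cell viability assay measuring inhibition of SCC-3 cell growth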
# Description: SANGER: Inhibition of human SCC-3 cell growth in a cell viability assay.
# [14] = tested on: M059J; assay: cells; type: functional, cell-based; details: Homo sapiens;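 further: growth inhibition of M059J cells, read out with a cell viability assay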
# Description: SANGER: Inhibition of human M059J cell growth in a cell viability assay.
# [15] = tested on: MFH-ino; assay: cells; type: functional, cell-based, Homo sapiens; details: Homo sapiens, MFH-ino;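 further: growth inhibition of human MFH-ino cells, read out by a cell viability assay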
# Description: SANGER: Inhibition of human MFH-ino cell growth in a cell viability assay.
# [16] = tested on: CWR22R; assay: cells; type: functional, cell-based; details: Homo sapiens, 22Rv1;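 further: growth inhibition of 22Rv1 cells, read out with a cell viability assay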
# Description: SANGER: Inhibition of human 22RV1 cell growth in a cell viability assay.
# [17] = tested on: GMS-10; assay: cells; type: functional, cell-based; details: Homo sapiens;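 further: growth inhibition of GMS-10 cells, read out as cell viability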
# Description: SANGER: Inhibition of human GMS-10 cell growth in a cell viability assay.
# [18] = tested on: SNU-423; assay: cells; type: functional, cell-based; details: Homo sapiens
# Description: SANGER: Inhibition of human SNU-423 cell growth in a cell viability assay.
# [19] = tested on: Calu-3; assay: cells; type: functional, cell-based; details: Homo sapiens;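 further: growth inhibition of human Calu-3 cells, determined with a cell viability assay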
# Description: SANGER: Inhibition of human Calu-3 cell growth in a cell viability assay.
# [20] = tested on: WSU-NHL; assay: cells; type: functional, cell-based, Homo sapiens; details: Homo sapiens, WSU-NHL;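 further: growth inhibition of human WSU-NHL cells, read out with a cell viability assay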
# Description: SANGER: Inhibition of human WSU-NHL cell growth in a cell viability assay.
# [21] = tested on: A2058; assay: cells; type: functional, cell-based; details: Homo sapiens;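 further: reduction of A2058 cell growth, read out with a viability assay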
# Description: SANGER: Inhibition of human A2058 cell growth in a cell viability assay.
# [22] = tested on: P12-Ichikawa; assay: cells; type: functional, cell-based; details: Homo sapiens
# [23] = tested on: NCI-H1993; assay: cells; type: functional, cell-based; details: Homo sapiens;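 further: growth inhibition of the cancer cell line, assessed with a cell viability assay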
# Description: SANGER: Inhibition of human NCI-H1993 cell growth in a cell viability assay.
# [24] = tested on: T-24; assay: cells; type: functional, cell-based; details: Homo sapiens;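 further: growth inhibition of T-24 cells, read out with a cell viability assay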
# Description: SANGER: Inhibition of human T-24 cell growth in a cell viability assay.
# [25] = tested on: DG-75; assay: cells; type: functional, cell-based, Homo sapiens; details: Homo sapiens, DG-75;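 further: growth inhibition of DG-75 cells, read out with a cell viability assay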
# Description: SANGER: Inhibition of human DG-75 cell growth in a cell viability assay.
# [26] = tested on: NCI-H1417; assay: cells; type: functional, cell-based, Homo sapiens; details: Homo sapiens, NCI-H1417;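 further: human NCI-H1417 cells, growth inhibition determined with a cell viability readout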
# Description: SANGER: Inhibition of human NCI-H1417 cell growth in a cell viability assay.
# [27] = tested on: HT1197; assay: cells; type: functional, cell-based, HT-1197; details: Homo sapiens
# Description: SANGER: Inhibition of human HT-1197 cell growth in a cell viability assay.
# [28] = tested on: SN12C; assay: cells; type: functional, cell-based; details: Homo sapiens;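 further: growth inhibition of human SN12C cells, measured by a cell viability assay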
# Description: SANGER: Inhibition of human SN12C cell growth in a cell viability assay.
# [29] = tested on: YT; assay: cells; type: functional, cell-based, Homo sapiens; details: Homo sapiens, YT
# Description: SANGER: Inhibition of human YT cell growth in a cell viability assay.
# [30] = tested on: MDA-MB-361; assay: cells; type: functional, cell-based; details: Homo sapiens
# [31] = tested on: IST-SL2; assay: cells; type: functional, cell-based, Homo sapiens; details: Homo sapiens, IST-SL2;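 further: growth inhibition of human IST-SL2 cells, read out by a cell viability assay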
# Description: SANGER: Inhibition of human IST-SL2 cell growth in a cell viability assay.
# [32] = tested on: TYK-nu; assay: cells; type: functional, cell-based; details: Homo sapiens;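 further: growth inhibition of human TYK-nu cells, read out by a cell viability assay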
# Description: SANGER: Inhibition of human TYK-nu cell growth in a cell viability assay.
# [33] = tested on: MONO-MAC-6; assay: cells; type: functional, cell-based, Homo sapiens; details: Homo sapiens, MONO-MAC-6;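 further: cell viability assay measuring growth inhibition of human MONO-MAC-6 cells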
# Description: SANGER: Inhibition of human MONO-MAC-6 cell growth in a cell viability assay.
# [34] = tested on: CPC-N; assay: cells; type: functional, cell-based, Homo sapiens; details: Homo sapiens, CPC-N;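 further: growth inhibition of CPC-N cells, with a cell viability assay as the readout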
# Description: SANGER: Inhibition of human CPC-N cell growth in a cell viability assay.
# [35] = tested on: SK-OV-3; assay: cells; type: functional, cell-based; details: Homo sapiens;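 further: growth inhibition of SK-OV-3 human cells, read out with a cell viability assay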
# Description: SANGER: Inhibition of human SK-OV-3 cell growth in a cell viability assay.
# [36] = tested on: BT-20; assay: cells; type: functional, cell-based; details: Homo sapiens;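 further: cell viability assay measuring suppression of growth in human BT-20 cells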
# Description: SANGER: Inhibition of human BT-20 cell growth in a cell viability assay.
# [37] = tested on: NCI-H1693; assay: cells; type: functional, cell-based; details: Homo sapiens;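 further: growth inhibition of the human cell line, read out with a cell viability assay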
# Description: SANGER: Inhibition of human NCI-H1693 cell growth in a cell viability assay.
# [38] = tested on: DMS-79; assay: cells; type: functional, cell-based, Homo sapiens; details: Homo sapiens, DMS-79
# Description: SANGER: Inhibition of human DMS-79 cell growth in a cell viability assay.
# [39] = tested on: BHY; assay: cells; type: functional, cell-based; details: Homo sapiens;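 further: cell growth inhibition read out by a viability assay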
# Description: SANGER: Inhibition of human BHY cell growth in a cell viability assay.
# [40] = tested on: Capan-2; assay: cells; type: functional, cell-based; details: Homo sapiens;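 further: Capan-2 cell growth inhibition, read out with a viability assay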
# Description: SANGER: Inhibition of human Capan-2 cell growth in a cell viability assay.
# [41] = tested on: LN-405; assay: cells; type: functional, cell-based; details: Homo sapiens
# Description: SANGER: Inhibition of human LN-405 cell growth in a cell viability assay.
# [42] = tested on: G-401; assay: cells; type: functional, cell-based; details: Homo sapiens
# Description: SANGER: Inhibition of human G-401 cell growth in a cell viability assay.
# [43] = tested on: HSC-4; assay: cells; type: functional, cell-based; details: Homo sapiens;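 further: growth inhibition of human HSC-4 cells, read out with a cell viability assay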
# Description: SANGER: Inhibition of human HSC-4 cell growth in a cell viability assay.
# [44] = tested on: SW780; assay: cells; type: functional, cell-based; details: Homo sapiens;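 further: growth inhibition of the cells, read out with a cell viability assay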
# Description: SANGER: Inhibition of human SW780 cell growth in a cell viability assay.
# [45] = tested on: SJRH30; assay: cells; type: functional, cell-based; details: Homo sapiens;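 further: growth inhibition of human SJRH30 cells, read out with a cell viability assay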
# Description: SANGER: Inhibition of human SJRH30 cell growth in a cell viability assay.
# [46] = tested on: Hs-578T; assay: cells; type: functional, cell-based; details: Homo sapiens
# Description: SANGER: Inhibition of human Hs-578-T cell growth in a cell viability assay.
# [47] = tested on: SK-MM-2; assay: cells; type: functional, cell-based, Homo sapiens; details: Homo sapiens, SK-MM-2;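 further: growth inhibition of human SK-MM-2 cells, read out with a cell viability assay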
# Description: SANGER: Inhibition of human SK-MM-2 cell growth in a cell viability assay.
# [48] = tested on: KYSE-410; assay: cells; type: functional, cell-based; details: Homo sapiens;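 further: growth inhibition of KYSE-410 cells, measured through a cell viability readout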
# Description: SANGER: Inhibition of human KYSE-410 cell growth in a cell viability assay.
# [49] = tested on: EFO-21; assay: cells; type: functional, cell-based; details: Homo sapiens;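 further: growth inhibition of EFO-21 cells measured with a viability assay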
# Description: SANGER: Inhibition of human EFO-21 cell growth in a cell viability assay.
# [50] = tested on: NCI-H2196; assay: cells; type: functional, cell-based, Homo sapiens; details: Homo sapiens, NCI-H2196; read-out: IC50;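 further: cell viability assay used as the readout of growth inhibition in NCI-H2196 cells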
# Description: SANGER: Inhibition of human NCI-H2196 cell growth in a cell viability assay.
# [51] = tested on: MEL-HO; assay: cells; type: functional, cell-based; details: Homo sapiens
# Description: SANGER: Inhibition of human MEL-HO cell growth in a cell viability assay.
# [52] = tested on: MIA PaCa-2; assay: cells; type: functional, cell-based; details: Homo sapiens;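 further: growth inhibition of MIA PaCa-2 cells, read out with a cell viability assay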
# Description: SANGER: Inhibition of human MIA-PaCa-2 cell growth in a cell viability assay.
# [53] = tested on: HEC-1; assay: cells; type: functional, cell-based; details: Homo sapiens;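 further: growth inhibition of the cell line, read out with a cell viability assay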
# Description: SANGER: Inhibition of human HEC-1 cell growth in a cell viability assay.
# [54] = tested on: COR-L279; assay: SANGER: Inhibition of human COR-L279 cell growth in a cell viability assay.; type: functional, cell-based; details: Homo sapiens, COR-L279
# [55] = tested on: OAW-28; assay: cells; type: functional, cell-based; details: Homo sapiens;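 further: growth inhibition of OAW-28 cells, read out with a cell viability assay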
# Description: SANGER: Inhibition of human OAW-28 cell growth in a cell viability assay.
# [56] = tested on: CAL-72; assay: cells; type: functional, cell-based; details: Homo sapiens;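 further: cell viability assay measuring inhibition of proliferation in the CAL-72 cell line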
# Description: SANGER: Inhibition of human CAL-72 cell growth in a cell viability assay.
# [57] = tested on: HT-3; assay: cells; type: functional, cell-based; details: Homo sapiens;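 further: growth inhibition measured with a cell viability readout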
# Description: SANGER: Inhibition of human HT-3 cell growth in a cell viability assay.
# [58] = tested on: CAKI-1; assay: cells; type: functional, cell-based; details: Homo sapiens;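 further: growth inhibition of CAKI-1 cells, measured by a cell viability assay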
# Description: SANGER: Inhibition of human CAKI-1 cell growth in a cell viability assay.
# [59] = tested on: A204; assay: cells; type: functional, cell-based; details: Homo sapiens;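 further: growth inhibition of human A204 cells, read out with a cell viability assay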
# Description: SANGER: Inhibition of human A204 cell growth in a cell viability assay.
smiles,measurement,setting,value
O=S(=O)(O)c1ccc2cc(/N=N/c3cc(S(=O)(=O)O)c4cccnc4c3O)ccc2c1,IC50,[1],> 16 µM
same,IC50,[2],> 16 µM
same,IC50,[3],> 16 µM
same,IC50,[4],> 16 µM
same,IC50,[5],> 16 µM
same,IC50,[6],> 16 µM
same,IC50,[7],> 16 µM
same,IC50,[8],> 16 µM
same,IC50,[9],> 16 µM
same,IC50,[10],> 16 µM
same,IC50,[11],> 16 µM
same,IC50,[12],> 16 µM
same,IC50,[13],> 16 µM
same,IC50,[14],14.9 µM
same,IC50,[15],> 16 µM
same,IC50,[16],> 16 µM
same,IC50,[17],> 16 µM
same,IC50,[18],> 16 µM
same,IC50,[19],> 16 µM
same,IC50,[20],> 16 µM
same,IC50,[21],> 16 µM
same,IC50,[22],> 16 µM
same,IC50,[23],> 16 µM
same,IC50,[24],> 16 µM
same,IC50,[25],> 16 µM
same,IC50,[26],> 16 µM
same,IC50,[27],> 16 µM
same,IC50,[28],> 16 µM
same,IC50,[29],> 16 µM
same,IC50,[30],> 16 µM
same,IC50,[31],> 16 µM
same,IC50,[32],> 16 µM
same,IC50,[33],> 16 µM
same,IC50,[34],> 16 µM
same,IC50,[35],> 16 µM
same,IC50,[36],> 16 µM
same,IC50,[37],> 16 µM
same,IC50,[38],> 16 µM
same,IC50,[39],> 16 µM
same,IC50,[40],> 16 µM
same,IC50,[41],> 16 µM
same,IC50,[42],> 16 µM
same,IC50,[43],> 16 µM
same,IC50,[44],> 16 µM
same,IC50,[45],> 16 µM
same,IC50,[46],> 16 µM
same,IC50,[47],> 16 µM
same,IC50,[48],> 16 µM
same,IC50,[49],> 16 µM
same,IC50,[50],> 16 µM
same,IC50,[51],> 16 µM
same,IC50,[52],> 16 µM
same,IC50,[53],> 16 µM
same,IC50,[54],> 16 µM
same,IC50,[55],> 16 µM
same,IC50,[56],> 16 µM
same,IC50,[57],> 16 µM
same,IC50,[58],> 16 µM
same,IC50,[59],> 16 µM
